These are literature values, as cited in publication PMC10268011 (ACS Omega, 2023).

The structures appear in SMILES notation.

For `COc1ccc(COc2ccc(Cc3cnc(N)nc3N)cc2OC)cc1` [GW2580, 5-(3-Methoxy-4-((4-Methoxybenzyl)Oxy)Benzyl)Pyrimidine-2,4-Diamine], the systemic bioavailability result was “high systemic bioavailability”.
